Where “and” joins values, the source holds several entries; their conditions need not be identical. Identical values can stand only once.

The text below walks through data of EPA's ToxValDB 9.5.

For data set [1], the system named is Rattus norvegicus. The following applies: inhalation, whole body, respiratory.
The subject of data set [2] is Rattus norvegicus. The note with it: chronic, M/F.
Data set [3] relates to Rattus norvegicus. The note with it: chronic, duration: 2 years, oral.
Data set [4] has as its system Mus musculus.
Data set [5] deals with Canidae. The following applies: chronic, oral, diet, M/F, Dog Other.
For data set [6], the system named is Canidae. The note with it: chronic, oral, diet, Dog Other.
Data set [7] has as its system Mus musculus. The note with it: repeat dose other; oral.
The test system of data set [8] is Mus musculus. The following applies: subchronic, M/F.
Data set [9] deals with Mus musculus. This is another data set of the same source.
Data set [10] relates to Rattus norvegicus. The data set can be described thus: LC0; higher = less toxic. The note with it: acute; inhalation; Crl:CD(SD) BR.
Data set [11] concerns Oryctolagus sp. The note with it: acute; dermal; occlusive; New Zealand.
For data set [12], the system named is Rattus norvegicus. The following applies: for LC50 / LD50: acute; for LD50: oral, gavage.
The subject of data set [13] is Bird. The following applies: oral, diet.
Data set [14] relates to Mus musculus. The following applies: inhalation.
Data set [15] concerns Rattus norvegicus. The note with it: subchronic, oral, Fischer 344.
Data set [16] has as its system Oryctolagus sp. The following applies: subchronic; inhalation; M; New Zealand White / Sprague-Dawley; testicular effects.
In data set [17] the test system is Rattus norvegicus. The note with it: Hershberger; duration: 10 days; oral; gavage; Sprague-Dawley; inactive + Negative + Negative + neither + negative.
Where [18] appears, read: inhalation, nasal epithelial lesions.
Where [19] appears, read: duration: 1 years, kidney and liver toxicity.
Setting [20] is: inhalation, reduced body weight.
Setting [21] is: oral, reduced rbc, packed cell volume and hemoglobin.
Where [22] appears, read: reproduction developmental, duration: 6 days, Crl: CFW(SW)Br, Charles River Laboratories, generation: F1.
[23] abbreviates: reproduction developmental, M, CD1.
[24] abbreviates: duration: 2 years, kidney and spleen pathology.

The term NOAEL denotes the highest dose or exposure tested at which no adverse effect was seen. By LOAEL is commonly meant the lowest tested level that showed an adverse finding. On to `C=COC(C)=O` [Vinyl acetate], for which the NOAEL is 174 mg/m3 in data set [1] (chronic, duration: 104 weeks, M/F, Crl:CD(SD)BR Sprague-Dawley); 703 mg/m3 in data set [1] (short-term, duration: 4 weeks, M, Sprague-Dawley (Crl:CD BR)); 703 mg/m3 in data set [1] (short-term, duration: 5 days, M, Sprague-Dawley (Crl:CD BR)); 176 mg/m3 in [2] (setting [18]); 100 mg/kg-day in [3] (drinking water, Kidney: Altered weight + Whole body: Altered weight); 176 mg/m3 in [4] (chronic, duration: 104 weeks, inhalation, intermittent, Nasal cavity: Lesions). The same molecule gave an LOAEL in [2] (setting [18]) of 704 mg/m3.

On to `Cc1cc(Cl)ccc1OCC(=O)O` [2-(4-Chloro-2-methylphenoxy)acetic acid], for which, in data set [5] (setting [19]), the LEL came out at 0.75 mg/kg-day and the NOEL turned out to be 0.15 mg/kg-day. Also, in data set [6] (duration: 52 weeks, Kidney: Effects + Liver: Effects), the NOEL came to 0.15 mg/kg-day.

`[Hg+2].[S-2]` [Mercury sulfide (HgS)] yielded an NOAEL in data set [7] of 13.2 mg/kg-day.

As for `CCOP(=S)(OCC)SCSC(C)(C)C` [Terbufos], the no observed adverse effect level (NOAEL) in data set [6] (duration: 6 months, Cholinesterase: Inhibition) worked out at 0.0025 mg/kg-day.

For `P` [Phosphine], the NOEL in data set [2] (oral, body weight and clinical parameters) was 0.026 mg/kg-day; in data set [3] (diet) it was 0.026 mg/kg-day. This molecule also registered an LOAEL in data set [8] (setting [20]) of 6.3 mg/m3. For the same molecule, the NOAEL stood at 1.4 mg/m3 in [8] (setting [20]) and 1.4 mg/m3 in data set [4] (subchronic, duration: 13 weeks, inhalation, intermittent, Whole body: Decreased weight).

Take `c1ccc2c(c1)Cc1ccccc1-2` [Fluorene]: the LOAEL came to 125 mg/kg-day in data set [9] (subchronic, duration: 90 days, oral, gavage, M/F, CD1, hepatic) and 250 mg/kg-day in data set [8] (setting [21]). The no-observed-adverse-effect level (NOAEL) in data set [8] (setting [21]) stood at 125 mg/kg-day; in data set [4] (subchronic, duration: 13 weeks, oral, gavage, Erythrocytes: Decreased counts), 125 mg/kg-day.

Usually LD50 stands for the dose at which mortality reaches 50%. Take `Cc1cccnc1` [3-Methylpyridine]: in data set [10], the LC0 was ≥ 4950 mg/m3 and ≤ 12600 mg/m3. Moreover, the LD50 is ≥ 126 mg/kg and ≤ 200 mg/kg in [11]; 630 mg/kg in [12] (Fischer 344); 710 mg/kg in [12] (Sprague-Dawley). The molecule further showed an LC50 in [12] (inhalation, Sprague-Dawley) of less than 11.8 mg/mL. Besides, the LOAEL in data set [12] (short-term, duration: 2 weeks, inhalation, Crl:CD(SD) BR) is 1100 mg/m3.

Turning to `Cc1cc(C(C)(C)c2ccc(O)c(C)c2)ccc1O` [3,3'-Dimethylbisphenol A], the NOEL in data set [13] (short-term, duration: 1 month, M, Chicken, body weight) stood at 0.3%; in [13] (subchronic, duration: 12 week, M/F, White leghorn chicken, mortality) it was 0.3%; in [13] (subchronic, duration: 12 week, M, White leghorn chicken, body weight + mortality) it was 0.3%. For the same molecule, the LOEL in [13] (short-term, duration: 1 month, M, Chicken, mortality) was 0.3%; in data set [13] (subchronic, duration: 12 week, M, White leghorn chicken, body weight), 0.3%.

For the molecule `c1ccccc1` [Benzene], the LOAEL in data set [9] (short-term, duration: 6 days, inhalation, whole body, M, C57BL/6, immunological) was determined as 32.6 mg/m3; in [9] (short-term, duration: 20 days, inhalation, M, C57Bl/6, immunological), 31.9 mg/m3; in data set [7] it was 264 mg/kg-day; in [14] (repeat dose other, CD1), 31.9 mg/m3; in data set [14] (setting [22]), 63.9 mg/m3; in data set [14] (reproduction developmental, F, CD1), 958 mg/m3. In data set [14] (setting [23]), this molecule registered an LOAEL of 958 mg/m3. For the same molecule, the NOAEL in data set [7] worked out at 26.4 mg/kg-day; in [14] (setting [22]), 31.9 mg/m3; in [14] (reproduction developmental, duration: 6 days, F, Crl: CFW(SW)Br, Charles River Laboratories), 63.9 mg/m3; in data set [14] (setting [23]), 95.8 mg/m3. The LC50 in data set [12] (inhalation, Sprague-Dawley) is 43800 mg/m3. Besides, in data set [15] (duration: 13 weeks, gavage, M/F, Deaths + Body Weight Changes: decrease + Hematology: WBC decrease, Lympho decrease + Histopathology: Spleen-B-cell depletion Spleen-…), the NOEL was less than 25 mg/kg-day.

Turning to `COCCO` [2-Methoxyethanol], in [16], the LOAEL turned out to be 311 mg/m3 and the no-observed-adverse-effect level (NOAEL) was determined as 93 mg/m3. For the same molecule, in data set [15] (drinking water, F, Deaths + Clinical Observation: Tremors Diarrhea Emaciation Abnormal posture Pallor Tachypnea Comatose state + Body Weight Changes: decrease…), the NOEL stood at 70 mg/kg-day. Also, the NOEL in [15] (drinking water, M/F, Deaths + Clinical Observation: Tremors Diarrhea Emaciation Abnormal posture Pallor Tachypnea Comatose state + Body Weight Changes: decrease…) is less than 114 mg/kg-day.

Regarding `CNC(=O)ON=C(C)SC` [Methomyl], the NOEL stood at 1 mg/kg-day in [17]; 2.5 mg/kg-day in data set [5] (setting [24]); 2.5 mg/kg-day in data set [6] (duration: 24 months, Kidney: Lesions). In [5] (setting [24]), this molecule returned an LEL of 10 mg/kg-day.
